Laboratory results published in PMC8634879, “Design, Synthesis, and Biological Evaluation of Pyrano[2,3-c]-pyrazole–Based RalA Inhibitors Against Hepatocellular Carcinoma” (Frontiers in Chemistry, 2021).
Read-outs that look alike come from different tables or passages of the source.

What was measured:
RalA [1] = biological target: T1, RalA (Homo sapiens, UniProt P11233); experiment: GST pulldown of activated RalA; format: cell-based
T1 construct: expressed in transfected cells; host or cells: HepG2 (from b6; the methods paragraph names no cell line)
T1 sequence (P11233 1-203 limits assumed): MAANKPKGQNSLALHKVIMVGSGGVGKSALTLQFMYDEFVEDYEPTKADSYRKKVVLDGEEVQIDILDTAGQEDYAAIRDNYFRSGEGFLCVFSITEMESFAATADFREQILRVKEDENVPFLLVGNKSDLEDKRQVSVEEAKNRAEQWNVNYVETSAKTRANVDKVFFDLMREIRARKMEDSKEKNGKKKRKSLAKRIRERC
Method: GST pulldown assays were performed to assess 4p RalA/B inhibitory capacities. […] Only activated RalA was suppressed after incubation with 0.5 μM of compound 4p (Figure 5A).
(§1) The in vitro RalA/B bioactivity assays were performed following methods outlined in previous reports. ([Yan et al., 2016]; [Zhang et al., 2018]; [Walsh et al., 2019]; [Bum-Erdene et al., 2020]). In brief, the lysates of the test compound or vehicle-treated cells were cleared using cold centrifugation, and supernatants were collected. An RalBP1 solution was added to 96-well plates and incubated for 1–2 h, and then the plates were washed thrice using ELISA buffer. Next, cellular lysates were added, and samples were incubated overnight at 4°C. Then, ice-cold mouse anti-FLAG antibody was added, and samples were incubated for one more hour. After subsequent washing with ELISA buffer thrice, the HRP-conjugated anti-mouse antibody was added, and samples were incubated for another hour. Then, the HRP substrate was added. Antigen–antibody reactions were quenched by the addition of sulfuric acid (2 mol/L). Remaining RalA/B was detected by the OD450 values which were collected by using a plate reader. Cell proliferation assays, colony formation assays, apoptosis assays, GST pulldown, and Western blotting were used following methods outlined in our previous reports. ([Zhou et al., 2015]; [Zhang et al., 2016]; [Yang et al., 2017]; [He et al., 2019]). Autophagy levels and protein immunoblotting were used following the methods mentioned in our previous reports ([Pan et al., 2018]; [Wang et al., 2018]; [Hao et al., 2019]; [Wang et al., 2019]; [Peng et al., 2020]). Detailed experimental procedures are described in supporting materials.

Huh-7 cells = experiment: Cell proliferation assay (MTT), Huh-7; format: cell-based; settings: Homo sapiens
Method: (§2) The antibodies recognizing LC3, p62/SQSTM1, RalA, RalB, and GAPDH were purchased from Proteintech (Wuhan, China). HCC cell lines, including HepG2, Hep3B, Huh-7, and SMMC-7721, were obtained from the Chinese Center for Type Culture Collection (Wuhan, China) and cultured in DMEM (Dulbecco’s modified Eagle’s medium) with 10% FBS (fetal bovine serum) and streptomycin. Cytotoxicity assays were performed by using the MTT method as previously described.
as §1

RalA [2] = biological target: T1, RalA; experiment: ELISA-based RalA activity assay (RalBP1-coated plates, lysates of compound-treated cells); format: biochemical
Method: as §1

SMMC-7721 cells = experiment: Cell proliferation assay (MTT), SMMC-7721; format: cell-based; settings: Homo sapiens, average of at least three independent replicates ± SD, read-out: Anti-proliferative activities (IC50, μM) SMMC-7721
Method: as §2, §1

HepG2 cells = experiment: Autophagy assays in HepG2 cells (TEM, Western blotting, GFP-LC3 puncta); format: cell-based
Method: Several reports have characterized RalA/B potential regulatory roles in autophagy ([Zhang et al., 2019]; [Pang et al., 2020]; [Zhang et al., 2020]). Considering the dual effect of HCC autophagy, we assessed changes in HepG2 cell autophagy levels after the addition of 0.5 or 2.0 μM of 4p, before incubation. Based on HepG2 cells’ TEM images with or without 4p (Figure 5B), autophagy vacuoles per cell decreased in the 4p-treated group (p < 0.01). After 4p treatments, LC3-II and ATG5 protein levels declined and SQSTM1 increased. […] In GFP-LC3–transfected HepG2 cells, cytoplasm LC3 fluorescent puncta numbers also declined after 4p treatments. […] The in vivo antitumor capacities of 4p were determined on a HepG2 subcutaneous xenograft model. The 4p intraperitoneal injections were set to 15 mg/kg and 60 mg/kg, according to in vitro results. […] The potential 4p molecular mechanisms were further validated using immunofluorescence and IHC analyses of tissue sections stained by antibodies against TUNEL, Ki-67, RalA, LC3-II, and SQSTM1. […] Therefore, the in vivo results were consistent with in vitro experiments. […]
The autophagy assay is relied on HepG2 cells transfected by GFP-LC3. In brief, the HepG2 cells after transfecting are processed by saline or compound 4p for 6 h, after that the cells are going to fix by paraformaldehyde and the phenomenon of autophagosome punctures can be observed through the accumulated of GFP-LC3 under laser confocal microscopy.
2. Western blotting analysis
For western blotting, the extracts of total protein from each sample were treated in accordance with the method we described previously. In short, the total proteins were loaded into the SDS-PAGE gel and separated through the different of their molecular weight in electrophoresis, after that the separated proteins were shifted into a PVDF membrane (Millipore, Burlington, MA, USA) and incubated through corresponding membrane react pathways. The resulted membranes reacted with major antibodies and HRP (horseradish peroxidase)-conjugated secondary antibodies. The expression profiles of target proteins can be identified through an enhanced chemiluminescence (ECL) substrate. […]

RalB = biological target: T2, RalB (Homo sapiens, UniProt P11234); experiment: ELISA-based RalB activity assay (RalBP1-coated plates, lysates of compound-treated cells); format: biochemical
T2 construct: expressed in transfected cells; host or cells: HepG2 (from b6; the methods paragraph names no cell line)
T2 sequence (P11234 1-203 limits assumed): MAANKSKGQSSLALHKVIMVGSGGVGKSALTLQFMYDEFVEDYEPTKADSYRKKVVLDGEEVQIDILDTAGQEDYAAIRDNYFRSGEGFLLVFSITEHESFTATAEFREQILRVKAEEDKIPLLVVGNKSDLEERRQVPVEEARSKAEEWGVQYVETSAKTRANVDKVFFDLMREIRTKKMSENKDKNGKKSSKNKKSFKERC
Method: as §1

Hep3B cells = experiment: Cell proliferation assay (MTT), Hep3B; format: cell-based; settings: Homo sapiens, average of at least three independent replicates ± SD, read-out: Anti-proliferative activities (IC50, μM) Hep3B
Method: as §2, §1

With `COc1ccc(S(=O)(=O)NC2=C(C#N)C(c3ccc(C(F)(F)F)cc3)c3c(C)nn(-c4ccccc4)c3O2)cc1` (stereo not drawn) [4p, N-(5-cyano-3-methyl-1-phenyl-4-(4-(trifluoromethyl)phenyl)-1,4-dihydropyrano[2,3-c]-pyrazol-6-yl)-4-methoxybenzenesulfonamide] the “activated RalA protein expression level” value (RalA [1]; 0.5 μM, only activated RalA, not RalB) was “suppressed”, the “activated RalA protein expression level” value (RalA [1]; 2.0 μM) was “significantly suppressed” and the “total RalA expression” value (RalA [1]; GST pulldown experiment) was “unchanged”. It also gave an IC50 (Huh-7 cells; Table 1, cell proliferation inhibition, read-out: IC50 (μM) Huh7) of 4.31 ± 0.39 µM, an IC50 (Huh-7 cells; Table 2, average of at least three independent replicates ± SD, read-out: Anti-proliferative activities (IC50, μM) Huh-7) of 4.31 ± 0.39 µM and a remaining activity at 1 µM (RalA [2]; 1 μM compound, % control = activity remained) of 13%. For the same molecule, the IC50 (RalA [2]; enzymatic inhibition, average of at least three independent replicates ± SD, read-out: Kinase activities (IC50, μM) RalA) was 0.22 ± 0.04 µM, the IC50 (SMMC-7721 cells) was 5.38 ± 0.37 µM and the “cytoplasm LC3 fluorescent puncta numbers” value (HepG2 cells; GFP-LC3–transfected HepG2 cells, 2.0 μM) was “declined”. The “LC3-II and ATG5 protein levels (Western blotting)” value (HepG2 cells; HepG2, 0.5 or 2.0 μM) was “declined”, the “SQSTM1 protein level (Western blotting)” value (HepG2 cells; HepG2, 0.5 or 2.0 μM) was “increased” and the “autophagy vacuoles per cell (TEM)” value (HepG2 cells; HepG2, 4p-treated group, p < 0.01) was “decreased”. For the same molecule, the remaining activity at 1 µM (RalB; 1 μM compound, % control = active (RalBP1-bound) RalB remaining) was 22%, the IC50 (RalB; enzymatic inhibition, average of at least three independent replicates ± SD, read-out: Kinase activities (IC50, μM) RalB) was 0.41 ± 0.07 µM and the IC50 (Hep3B cells) was 2.71 ± 0.27 µM.
